Assay [1] has as its system Raupe (L5) der Art Spodoptera frugiperda. Briefly: Spodoptera test (treated artificial diet discs). Type of assay: in vivo. To be noted: Spodoptera frugiperda caterpillars (L5) on treated artificial diet; compared with the prior art; figures not given. An excerpt:
(§1) • Lösungsmittel: 3 Gewichtsteile Aceton • Emulgator: 1 Gewichtsteil Alkylarylpolyglykolether
Zur Herstellung einer zweckmäßigen Wirkstoffzubereitung vermischt man 1 Gewichtsteil Wirkstoff mit der angegebenen Menge Lösungsmittel und der angegebenen Menge Emulgator und verdünnt das Konzentrat mit Wasser auf die gewünschte Konzentrationen.
Kunstfutterscheiben, die in Plastikdosen liegen, werden durch Beträufeln mit der Wirkstoffzubereitung der gewünschten Konzentration behandelt. Nach Eindringen der Lösung besetzt man die Plastikdosen mit je 1 Raupe (L5) der Art Spodoptera frugiperda, wobei je Versuchsglied 5 Wiederholungen aufgestellt werden. Nach der Verpuppung legt man die Tiere eines Versuchsglieds in eine größere Dose. Nach der gewünschten Zeit wird die Abtötung in % bestimmt. Dabei bedeutet 100 X, daß alle Tiere abgetötet wurden; 0 X bedeutet, daß keine Tiere abgetötet wurden.

For assay [2], the system named is Musca domestica-tmultiresistent) Maden. In words: Fly maggot development inhibition test. Type of assay: in vivo. To be noted: Musca domestica maggots on treated filter paper, 14 days; compared with the prior art; figures not given. The procedure:
Fliegenmaden-Entwicklungshommungstest Testtiere: Musca domestica-tmultiresistent) Maden Lösungsmittel: Aceton
2 Gewichtsteile Wirkstoff werden in 1 000 Volumenteilen Lösungsmittel aufgenommen. Die so erhaltene Lösung wird mit weiteren Lösungsmitteln auf die gewünschten Konzentrationen verdünnt.
2,5 ml Wirkstofflösung werden in eine Petrischale pipettiert. Auf dem Boden der Petrischale befindet sich ein Filterpapier mit einem Durchmesser von etwa 9,5 cm. Die Petrischale bleibt so lange offen stehen, bis das Lösungsmittel vollständig verdunstet ist. Je nach Konzentration der Wirkstofflösung ist die Menge Wirkstoff pro m^2 Filterpapier verschieden hoch. Anschließend gibt man etwa 25 Testtiere in die Petrischale und bedeckt sie mit einem Glasdeckel.
14 Tage nach Ansetzen der Versuche wird die Zahl der geschlüpften Fliegen kontrolliert. Bestimmt wird der X-Satz der Schlüpfhemmung im Vergleich zur unbehandelten Kontrolle.

Assay [3] has as its system Lucilia cuprina res.-Larven. Briefly: Test with resistant Lucilia cuprina larvae. In kind it is in vivo. To be noted: horse meat, after 24 hours, compared with the prior art, figures not given. From the text: Test mit Lucilia cuprina resistent-Larven
• Emulgator: 35 Gewichtsteile Ethylenglykolmonomethylether • 35 Gewichtsteile Nonylphenolpolyglykolether
Zur Herstellung einer zweckmäßigen Wirkstoffzubereitung vermischt man drei Gewichtsteile Wirkstoff mit sieben Gewichtsteilen des oben angegebenen Gemisches und verdünnt das so erhaltene Konzentrat mit Wasser auf die jeweils gewünschte Konzentration.
Etwa 20 Lucilia cuprina res.-Larven werden in ein Teströhrchen gebracht, welches ca. 1 cm^3 Pferdefleisch und O,5 ml der Wirkstoffzubereitung enthält. Nach 24 Stunden wird der Abtötungsgrad bestimmt.

Assay [4] relates to Caenorhabditis elegans. Briefly: In vitro nematode test. To be noted: concentration at which reproduction is prevented, 7 days at 22°C; for minimal effective concentration: Caenorhabditis elegans, 168 h, read-out: Dosis effectiva. The procedure:
10-^4 g Wirkstoff wurden in 1 ml Wasser oder 0,1 ml Dimethylsulfoxid (DMSO) gelöst. Diese Lösung wurde auf eine Replica-Platte gegeben. Dazu wurden 2 ml einer E-coli-Suspension gegeben, in der man 10-20 weibliche Tiere oder Larven von Caenorhabditis elegans in 0,5 ml M9 Pufferlösung gegeben hat. Die E-coli-Suspension wurde hergestellt indem man 300 ml einer Ubernachthalter eines Uracil-bedürftigen E-coli-Stammes mit 1,8 1 steriler M 9 Pufferlösung versetzte.
Der Versuchsansatz wurde 7 Tage bei 22°C inkubiert und danach ausgewertet. Es wurde bewertet inwieweit der Wirkstoff die Vermehrung beeinträchtigt und die Konzentration angegeben bei der die Vermehrung verhindert wird.

In assay [5] the test system is Strongyloides ratti. In words: In vivo nematode test, infected rats. Also noted: species or system Ratten. To be noted: dose at which 95% of the parasites were killed, oral by gavage on three consecutive days from day 7 after infection; for ED95: Strongyloides ratti, killed day 13, read-out: effektive Dosis. An excerpt: Experimentell mit Strongyloides ratti infizierte Ratten werden 7 Tage nach der Infektion an drei aufeinanderfolgenden Tagen oral mittels Schlundsonde behandelt. Die Tiere werden 13 Tage nach der Infektion getötet und die Zahl der Parasiten bestimmt. Es wird die […] angegeben, bei der 95% der Parasiten abgetötet wurden (effektive Dosis): […]

Assay [6] deals with Haemonchus contortus. Briefly: In vivo nematode test, infected sheep (egg count in faeces). Set-up: species or system Schafe. To be noted: sheep infected with normally sensitive or benzimidazole-resistant Haemonchus contortus, oral, pure active substance in gelatin capsules, worm egg count before and after treatment; for minimal effective dose: read-out: Dosis effectiva. From the text:
Haemonchus contortus 1 Schaf
Experimentell mit normal empfindlichen bzw. mit gegen Benzimidazol-Anthelmintika resistenten Haemonchus contortus infizierte Schafe wurden nach Ablauf der Präpatenzzeit des Parasiten behandelt. Die Wirkstoffe wurden als reiner Wirkstoff in Gelatinkapseln oral appliziert.
Der Wirkungsgrad wird dadurch bestimmt, daß man die mit dem Kot ausgeschiedenen Wurmeier vor und nach der Behandlung quantitativ auszählt.
Ein völliges Sistieren der Eiausscheidung nach der Behandlung bedeutet, daß die Würmer abgetrieben wurden oder so geschädigt sind, daß sie keine Eier mehr produzieren.

Assay [7] has as its system Larven (L3) des Meerrettichkäfers (Phaedon cochleariae). Briefly: Phaedon larvae test (treated cabbage leaves). In kind it is in vivo. To be noted: Phaedon cochleariae larvae (L3) on treated Brassica oleracea leaves; compared with the prior art; figures not given.
Text: as §1
Zur Herstellung einer zweckmäßigen Wirkstoffzubereitung vermischt man 1 Gewichtsteil Wirkstoff mit der angegebenen Menge Lösungsmittel und der angegebenen Menge Emulgator und verdünnt das.Konzentrat mit Wasser auf die gewünschte Konzentration.
Kohlpflanzen (Brassica oleracea) werden mit der Wirkstoffzubereitung der gewünschten Konzentration behandelt. Ein Blatt der behandelten Pflanze wird in eine Plastikdose gelegt und mit Larven (L3) des Meerrettichkäfers (Phaedon cochleariae) besetzt. Nach 2 und 4 Tagen wird jeweils ein weiters Blatt von derselben Pflanze für die Nachfütterung verwendet.
Nach der gewünschten Zeit wird die Abtötung in % bestimmt. Dabei bedeutet 100 X, daß alle Käferlarven abgetötet wurden.

Assay [8] relates to Mückenlarven (L4) (Aedes aegypti). In words: Aedes test (larvae in aqueous preparation). In kind it is in vivo. To be noted: 20 Aedes aegypti larvae (L4) per glass; compared with the prior art; figures not given. From the text: • Löcungcmittal: 3 Gewichtsteile Aceton • Emulgator: 1 Gewichtsteil Alkylarylpolyglykolether
Zur Herstellung einer zweckmäßigen Wirkstoffzubereitung vermischt man 1 Gawichtcteil Wirkstoff mit der angegebenen Menge Löcungcmittel und der angegebenen Menge Emulgator und verdünnt das Konzentrat mit Wasser auf die gewünschte Konzentrationen.
Man füllt die wässrigen Wirkctoffzubereitungen in Gläser und setzt anschließend 20 Mückenlarven (L4) (Aedes aegypti) in jedes Glas ein.
Nach der gewünschten Zeit wird die Abtötung in % bestimmt. Dabei bedeutet 100 X, daß alle Tiere abgetötet wurden; 0 % bedeutet, daß keine Tiere abgetötet wurden.

For assay [9], the system named is Hymenolepis nana. Briefly: In vivo nematode test, infected mice. Also noted: species or system Mäuse. To be noted: Rodentolepis nana, dose at which 95% of the parasites were killed, oral by gavage on four consecutive days from day 10 after infection, killed day 17, read-out: effektive Dosis. From the text:
Experimentell mit Hymenolepis nana infizierte Mäuse werden 10 Tage nach der Infektion an vier aufeinanderfolgenden Tagen oral mittels Schlundsonde behandelt. Die Tiere werden 17 Tage nach Infektion getötet und die Zahl der Parasiten bestimmt. Es wird die Wirkstoffkonzentration angegeben, bei der 95% der Parasiten abgetötet wurden (effektive Dosis): […]

The test system of assay [10] is Heterakis spumosa. In words: In vivo nematode test, infected mice. Also noted: species or system Mäuse. To be noted: Ganguleterakis spumosa, dose at which 95% of the parasites were killed, oral by gavage on four consecutive days from day 32 after infection, killed day 39, read-out: effektive Dosis. An excerpt:
Experimentell mit Heterakis spumosa infizierte Mäuse werden 32 Tage nach der Infektion an vier aufeinanderfolgenden Tage oral mittels Schlundsonde behandelt. Die Tiere werden 39 Tage nach der Infektion getötet und die Zahl der Parasiten bestimmt. Es wird die Wirkstoffkonzentration angegeben bei der 95% der Parasiten abgetötet wurden (effektive Dosis): […]

As to `CN1C(=O)C(C(=O)Nc2ccc(SC(F)(F)F)cc2)C(=O)N(C)P1(=O)Oc1ccc(Cl)cc1` (stereo not drawn) [Beispiel 24], the Abtötung in % entry in [1] was “überlegene Wirksamkeit gegenüber dem Stand der Technik”. Moreover, the “X-Satz der Schlüpfhemmung im Vergleich zur unbehandelten Kontrolle” value in assay [2] is “überlegene Wirksamkeit gegenüber dem Stand der Technik”. Also, the Abtötungsgrad result in assay [3] is “überlegene Wirkung gegenüber dem Stand der Technik”. In addition, in assay [4], the minimal effective concentration worked out at 10 µg/mL. Also, the ED95 in assay [5] was found to be 10 mg/kg. For the same molecule, the minimal effective dose in [6] turned out to be 10 mg/kg.
`CN1C(=O)C(C(=O)Nc2ccc(OC(F)(F)F)cc2)C(=O)N(C)P1(=O)Oc1ccccc1` (stereo not drawn) [Beispiel 16]: the Abtötung in % entry in [7], in assay [1] and in [8] was “überlegene Wirksamkeit gegenüber dem Stand der Technik” throughout. In assay [4], the minimal effective concentration is 10 µg/mL.
`CN1C(=O)C(C(=O)Nc2ccc(Cl)c(C(F)(F)F)c2)C(=O)N(C)P1(=O)Oc1ccc(Cl)cc1` (stereo not drawn) [Beispiel 9]: the Abtötung in % entry in assay [1] and in [8] was “überlegene Wirksamkeit gegenüber dem Stand der Technik” each time. The minimal effective concentration in assay [4] was 10 µg/mL. The values for the ED95 in assay [5], in assay [9] and in assay [10] were 25 mg/kg, 50 mg/kg and 25 mg/kg, respectively. In addition, the minimal effective dose in [6] is 25 mg/kg.
Turning to `CN1C(=O)C(C(=O)Nc2ccc(Cl)c(C(F)(F)F)c2)C(=O)N(C)P1(=O)Oc1ccccc1` (stereo not drawn) [Beispiel 12], the Abtötung in % entry in [7] and in [8] was “überlegene Wirksamkeit gegenüber dem Stand der Technik” in each case. The minimal effective concentration in assay [4] amounted to 10 µg/mL. For the same molecule, the figures for the ED95 in assay [5] and in assay [10] were 100 mg/kg and 25 mg/kg, respectively.
With `CN1C(=O)C(C(=O)Nc2ccc(Oc3ccc(C(F)(F)F)cc3)cc2)C(=O)N(C)P1(=O)Oc1ccc(Cl)cc1` (stereo not drawn) [Beispiel 3], the minimal effective dose in assay [6] was determined as 50 mg/kg.
Consider `CN1C(=O)C(C(=O)Nc2ccc(SC(F)(F)F)cc2)C(=O)N(C)P1(=O)Oc1ccc(Cl)cc1` (stereo not drawn) [Beispiel 8], for which the Abtötung in % result in [7] and in assay [8] was “überlegene Wirksamkeit gegenüber dem Stand der Technik” throughout. The Abtötungsgrad result in assay [3] is listed as “überlegene Wirkung gegenüber dem Stand der Technik”. For the same molecule, the Dosis effectiva in assay [4] was 10 mg/L.
Take `CN1C(=O)C(C(=O)Nc2ccc(OC(F)(F)F)cc2)C(=O)N(C)P1(=S)Oc1ccccc1` (stereo not drawn) [Beispiel 7]: the Abtötung in % result in assay [1] and in [8] was “überlegene Wirksamkeit gegenüber dem Stand der Technik” in each case. The “X-Satz der Schlüpfhemmung im Vergleich zur unbehandelten Kontrolle” value in [2] is reported as “überlegene Wirksamkeit gegenüber dem Stand der Technik”. Moreover, in assay [4], the minimal effective concentration is 10 µg/mL. The ED95 in assay [5] amounted to 50 mg/kg. Further, the minimal effective dose in assay [6] is 50 mg/kg.
For the molecule `CN1C(=O)C(C(=O)Nc2ccc(Cl)c(C(F)(F)F)c2)C(=O)N(C)P1(=O)Oc1ccc(Cl)cc1` (stereo not drawn) [Beispiel 25], the Abtötung in % result in [7] was “überlegene Wirksamkeit gegenüber dem Stand der Technik”. Besides, the “X-Satz der Schlüpfhemmung im Vergleich zur unbehandelten Kontrolle” value in assay [2] is “überlegene Wirksamkeit gegenüber dem Stand der Technik”. In [3], the Abtötungsgrad result was “überlegene Wirkung gegenüber dem Stand der Technik”. Further, the “effektive Dosis” value in [5] (killed day 13) was 25 mg/kg. Further, the Dosis effectiva in assay [6] is on record as 25 mg/kg.
Turning to `CCN1C(=O)C(C(=O)Nc2ccc(Oc3cccc(C(F)(F)F)c3)cc2)C(=O)N(C)P1(=O)Oc1cccc(Cl)c1` (stereo not drawn) [Beispiel 47], the minimal effective dose in assay [6] was determined as 10 mg/kg.

(Values after patent EP0216105A1, “Diazaphosphorines, process for their preparation and their use as pesticide” (priority 1985, dated 1987).)
